“Also recorded” adds a separate entry of the source. Counter-ions that a name gives are not always drawn.
Columns and labels:
[1] = system: awake guinea pig (cholinergically-induced bronchial cramps); assay: inhalative provocation with acetyl-β-methylcholine chloride aerosol on awake guinea pigs (broncholytic/protective action); assay type: in vivo; details: for EC50: Cavia porcellus, read-out: EC50, average effective concentration w of acetyl-β-methylcholine chloride (provocation substance) after pre-treatment; for probit analysis reaction % calculated: probit regression; for probit analysis reaction % observed: animals reacting with dyspnoea
Description: animal strain: Pirbright white test substance: trospium chloride (MP 194) (M.W. 428) dosage: 3×10^-7 mole ml^-1 kg^-1 mode of administration: intraperitoneally test substance: dehydrotrospium chloride (WG 71) (M.W. 426) […]
reference substance: atropine hydrochloride (Serva; M.W. 325.8) […]
reference substance: isoproterenol (Fluka; M.W. 247.72) dosage: […]
further substances: acetyl-β-methylcholine chloride (Sigma; M.W. 195.7) mode of administration: 0.5 ml. min^-1 by inhalation.
The guinea pigs intended for an experiment are, after an acclimatization time of at least 8 days, subjected twice to an aerosol of 0.1% acetyl-β-methylcholine chloride solution since, as is known from experience, during the first two inhalative provocations, the animals react with more distinct respiratory disturbances than in the case of the subsequent provocations (adaptation). If, in the case of the two inhalation phases, a nonsensitivity (absence of respiratory disturbances) is observed towards the exposure, these animals are excluded from the actual experiment.
For the purpose of aerosol provocation, the guinea pigs are placed individually in an inhalation chamber (see Section 3.6 hereinafter) in which 0.5 ml. of solution per minute are atomized as droplet aerosol by means of a special nozzle (Rhema, Hofheim, Germany). […] With the help of a stopwatch, there is recorded the time from the commencement of inhalation to the appearance of the asphyctic state; the animals are immediately removed from the inhalation chamber and, as a rule, recover in a very short period of time (recovery of consciousness and normalization of breathing). If, within 180 seconds, no dysponea occurs, the inhalation is discontinued.
One aerosol concentration is tested per test day; the time between the individual aerosol provocations is at least 1 week.
The inhalation chamber is a Plexiglass container specially made for this purpose, the lid of which can be closed in an air-tight manner by means of rubber sealing and grip closure means. The internal measurements of the chamber are 285×190×180 mm., which corresponds to a volume of about 9.75 liters. The special nozzle (Rhema, Hofheim, Germany, order No. 504104) is fixed to a recess on the lid and ensures a uniform supply of the available chamber space with the aerosol. The provocation solution is supplied to the nozzle via an infusion pump (Braun, Melsungen, Germany) (0.5 ml./minute) and there atomized with a superpressure of 180 kPa from an attached pressure gas bottle (artificial air, KW-free). For reasons of safety, the aerosol provocation is carried out under a ventilator.
The EC50, as well as the related confidence interval (p>95%), are determined from the probit regression lines of the percentage values (v. supra) provided with weight coefficients after line adaptation by the "maximum likelihood" method (10 iterations). Furthermore, there is examined the adaptation of the lines to the observed data by means of the chiquadrat test. For the evaluation, a calculation programme is commercially available (Olivetti).

[2] = biological target: T1, isolated tracheal spirals of the guinea pig (Cavia porcellus, UniProt H0W1Z3); assay: anticholinergic effectiveness on isolated tracheal spirals (antagonism against acetyl-β-methylcholine chloride); details: for antagonism against acetyl-β-methylcholine chloride / anticholinergic effectiveness (in words): isolated guinea pig tracheal spirals
T1 construct: the whole of the trachea is roughly freed beginning from the larynx up to the tracheal bifurcation, removed and transferred; from tissue; host or cells: isolated trachea (spiral strips) of male Pirbright white guinea pigs
Source text: A model for this is the measurement of the anticholinergic effectiveness on isolated tracheal spirals of the guinea pig.
The test substance used was 3α-benziloyloxynortropane-8-spiro-1'-pyrrolidinium chloride (trospium chloride; MP 194), ipratropium bromide being used as comparison substance.
There is to be determined the anticholinergic effectiveness of MP 194 in comparison with the reference substance ipratropium bromide on the isolated tracheal spirals of the guinea pig.
3.1.1. animal species: guinea pig
3.1.2. animal strain: Pirbright white
3.3.1. test substance (test antagonist) trospium chloride (MP 194) (M.W. 428)
3.3.2. reference substance (reference antagonist) ipratropium bromide (Atrovent) (M.W. 412.4)
3.3.3.1. acetyl-β-methylcholine chloride (Sigma) (M.W. 195.7)
The guinea pig is stunned by a blow on the neck. Subsequently, the whole of the trachea is roughly freed beginning from the larynx up to the tracheal bifurcation, removed and transferred to tempered (37° C.) and carbogenized tyrode solution. After surrounding connective tissue has been removed as far as possible, the preparation is cut up spirally by means of fine scissors at an angle of about 45° and separated into two equal sized sections. After weighing, both preparations are provided proximally and distally with a silk thread. One thread serves for fixing the preparation by means of a loop to the bottom of the bath and the other is connected via a hook with the transducer above the bath vessel.
Subsequently, the preparations, corresponding to the calibration, are prestressed with about 80 mN and equilibrated from 50-100 minutes. During the equilibration phase, the nutrient solution in the bath vessels is renewed in 15 minute intervals. As soon as the resting muscle tonus of the preparation has stabilized, there takes place the cumulative addition of the agonist, whereby the addition of the next highest concentration first takes place when no further increase of contraction is recognisable (plateau). When the maximum contraction height of the preparation is achieved, the cumulative agonist addition is ended and the preparation is rinsed. After a further equilibration phase (v. supra), the cumulative addition of the agonist is repeated but this time in the presence of the test or reference antagonist.
3.6.1. The perfusion part consists of an L-shaped organ bath in the hollow space of which (longer limb) runs a double glass spiral through which the nutrient solution is passed into the actual bath vessel (28 ml. content; shorter limb). This bath vessel is divided into two chambers which are, however, connected together by two transverse connections. […] The inlet chambers as well as the feeding glass spirals are tempered from the outside to 37° C. by a separate liquid circulation. This tempering takes place with the help of a "Colora" ultra-thermostat type K (Colora Messtechnik GmbH, Dusseldorf, Germany) which serves as thermostat and pump. In order, in case of need, always to have available ready-for-use nutrient solution, above the organ bath is provided a double-walled storage container in which the nutrient solution is also tempered and carbogenised. This is connected via a glass stopcock and a polypropylene tube with double glass spiral in the interior of the organ bath.
3.6.2. The measurement and recording part includes a transducer (Statham-Universal-Zelle UC-2; Hugo Sachs Elektronic KG, Hugstetten, Germany). By means of a hanging-in weight, a force of 40 mN is produced on the transducer which passes as electrical signal via a connecting cable to a bridge amplifier. The amplification is smoothly so regulated that the force provided corresponds to a constant value on the scale or an analogous value on the millimeter paper of the recorder (dependent upon the amplification; see below). After fixing the organ, the preparation is prestressed to the doubled mark, corresponding to 80 mN. […]

[3] = pre-treatment 3×10^-7 mol ml^-1 kg^-1 i.p., 15 min before inhalation, w of acetyl-β-methylcholine chloride in atomised solution, control animals w=0.000539, higher = more protection
[4] = acetyl-β-methylcholine chloride w=0.000562, 10 tested, pre-treatment 3×10^-7 mol ml^-1 kg^-1 i.p.
[5] = acetyl-β-methylcholine chloride w=0.000562, pre-treatment 3×10^-7 mol ml^-1 kg^-1 i.p.
[6] = acetyl-β-methylcholine chloride w=0.001000, 10 tested (isoproterenol 9), pre-treatment 3×10^-7 mol ml^-1 kg^-1 i.p.
[7] = acetyl-β-methylcholine chloride w=0.001000, pre-treatment 3×10^-7 mol ml^-1 kg^-1 i.p.
[8] = acetyl-β-methylcholine chloride w=0.001780, pre-treatment 3×10^-7 mol ml^-1 kg^-1 i.p.
[9] = acetyl-β-methylcholine chloride w=0.001780, trospium chloride 10 tested, dehydrotrospium chloride 9, atropine 9, isoproterenol 8, pre-treatment 3×10^-7 mol ml^-1 kg^-1 i.p.
[10] = acetyl-β-methylcholine chloride w=0.003160, 10 tested (isoproterenol 9), pre-treatment 3×10^-7 mol ml^-1 kg^-1 i.p.
[11] = acetyl-β-methylcholine chloride w=0.003160, pre-treatment 3×10^-7 mol ml^-1 kg^-1 i.p.
[12] = acetyl-β-methylcholine chloride w=0.005620, 10 tested (isoproterenol 9), pre-treatment 3×10^-7 mol ml^-1 kg^-1 i.p.
[13] = acetyl-β-methylcholine chloride w=0.005620, pre-treatment 3×10^-7 mol ml^-1 kg^-1 i.p.

T1 sequence (H0W1Z3 1-590): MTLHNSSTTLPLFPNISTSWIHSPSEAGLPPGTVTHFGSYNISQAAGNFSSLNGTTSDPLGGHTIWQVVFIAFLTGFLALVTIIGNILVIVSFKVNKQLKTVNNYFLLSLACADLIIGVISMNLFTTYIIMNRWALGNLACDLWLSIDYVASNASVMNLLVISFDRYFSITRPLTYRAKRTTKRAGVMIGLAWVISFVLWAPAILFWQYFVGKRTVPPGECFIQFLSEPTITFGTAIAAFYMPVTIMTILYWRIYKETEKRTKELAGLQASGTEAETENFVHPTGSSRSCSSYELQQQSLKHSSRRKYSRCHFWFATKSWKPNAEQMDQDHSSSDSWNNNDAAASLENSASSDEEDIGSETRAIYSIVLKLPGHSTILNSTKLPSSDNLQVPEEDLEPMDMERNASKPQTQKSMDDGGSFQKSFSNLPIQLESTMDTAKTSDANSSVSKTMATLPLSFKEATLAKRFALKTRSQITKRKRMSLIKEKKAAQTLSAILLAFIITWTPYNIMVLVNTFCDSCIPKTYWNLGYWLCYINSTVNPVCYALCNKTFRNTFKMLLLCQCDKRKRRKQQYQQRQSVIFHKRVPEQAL

O=C(O[C@H]1C[C@H]2CC[C@@H](C1)[N+]21CCCC1)C(O)(c1ccccc1)c1ccccc1 [trospium chloride, 3α-benziloyloxynortropane-8-spiro-1'-pyrrolidinium chloride]
broncholytic effectiveness compared with atropine and isoproterenol (in words) ([1]; 15 min after i.p. administration, equimolar dosages): comparable with or superior to the well known parasympatholytics atropine and the β-sympathomimetic isoproterenol; also recorded: greater effectiveness of the test substances, especially of trospium chloride, in comparison with the reference substances
EC50 [1, 3]: 2860 µg/mL
number of animals reacting [1, 4]: 0
probit analysis reaction % calculated [1, 5]: 5.46%
number of animals reacting [1, 6]: 1
probit analysis reaction % observed [1, 7]: 10.00%
probit analysis reaction % calculated [1, 7]: 15.03%
probit analysis reaction % observed [1, 8]: 50.00%
probit analysis reaction % calculated [1, 8]: 32.00%
number of animals reacting [1, 9]: 5
number of animals reacting [1, 10]: 5
probit analysis reaction % observed [1, 11]: 50.00%
probit analysis reaction % calculated [1, 11]: 53.87%
number of animals reacting [1, 12]: 7
probit analysis reaction % observed [1, 13]: 70.00%
probit analysis reaction % calculated [1, 13]: 74.66%
probit analysis reaction % observed, correction according to Bliss ([1]; guinea pig, in vivo): 2.50
broncholytic effect (in words) ([1]; intraperitoneal, cholinergically-induced bronchial cramps, awake guinea pig): outstanding broncholytic effect
Kb ([2]; antagonism against acetyl-β-methylcholine chloride, read-out: pA2 ± s (converted)): 0.55 nM
quality of the antagonism (in words) ([2]; comparison of maximum effects in absence and presence of the antagonist, listed as MP 194): competitively antagonistically effective; also recorded: competitive antagonism
strength of activity compared with ipratropium bromide (in words) ([2]; comparison of pA2 values, t-test, listed as MP 194): equivalent to the reference substance ipratropium bromide; also recorded: does not differ significantly; also recorded: equal to the reference substance ipratropium bromide
antagonism against acetyl-β-methylcholine chloride / anticholinergic effectiveness (in words) ([2]; listed as MP 194): comparable, dosage-dependent antagonism; also recorded: clear anticholinergic effectiveness

CN1[C@@H]2CC[C@H]1C[C@@H](OC(=O)C(CO)c1ccccc1)C2 (stereo partly shown) [atropine chloride, atropine hydrochloride, reference compound]
EC50 [1, 3]: 1380 µg/mL
number of animals reacting [1, 4]: 3
probit analysis reaction % observed [1, 5]: 30.00%
probit analysis reaction % calculated [1, 5]: 38.93%
number of animals reacting [1, 6]: 6
probit analysis reaction % observed [1, 7]: 60.00%
probit analysis reaction % calculated [1, 7]: 45.98%
probit analysis reaction % observed [1, 8]: 55.56%
probit analysis reaction % calculated [1, 8]: 53.16%
number of animals reacting [1, 9]: 5
number of animals reacting [1, 10]: 5
probit analysis reaction % observed [1, 11]: 50.00%
probit analysis reaction % calculated [1, 11]: 60.20%
number of animals reacting [1, 12]: 7
probit analysis reaction % observed [1, 13]: 70.00%
probit analysis reaction % calculated [1, 13]: 66.95%
EC50, average effective concentration w of acetyl-β-methylcholine chloride (provocation substance) after pre-treatment [1, 3]: 0.00138
antagonism against acetyl-β-methylcholine chloride / anticholinergic effectiveness (in words) [2]: dosage dependent antagonism
